Assay results published in PMC11033320, “Activation of p53 signaling and regression of breast and prostate carcinoma cells by spirooxindole-benzimidazole small molecules” (Frontiers in Pharmacology, 2024).

Experiments:
[1] = MTT cytotoxicity to normal human lung fibroblast Wi-38 cell line; type: cell-based; settings: Wi-38 normal lung fibroblast cells, mean ± SEM, read-out: percentage of Wi-38 viability
Experimental: Normal human lung fibroblast Wi-38 cell line was used to detect cytotoxicity of the studied compounds (Table S8). Wi-38 cell line was cultured in DMEM medium-contained 10% fetal bovine serum (FBS), seeded as 5x10^3 cells per well in 96-well cell culture plate and incubated at 37 °C in 5% CO2 incubator. After 24 h for cell attachment, serial concentrations of the synthetic compounds were incubated with Wi-38 cells for 72 h. Cell viability was assayed by MTT method (Mosmann, 1983). Twenty microliters of 5 mg/ml MTT (Sigma, USA) was added to each well and the plate was incubated at 37 °C for 3 h. Then MTT solution was removed, 100 µl DMSO was added and the absorbance of each well was measured with a microplate reader (BMG LabTech, Germany) at 570 nm.

PC-3 cells = test: MTT assay anticancer activity, PC-3; type: cell-based; settings: Homo sapiens, PC-3, 5 µM, mean ± SEM, read-out: growth inhibition percentage of PC-3
Text: MTT method was done as described above.

[2] = target: T1, Mdm2 (residues 1–118 T47W) (Homo sapiens, UniProt Q00987, T47W); test: MDM2 binding by microscale thermophoresis (MST)
T1 construct: Mdm2 (residues 1–118 T47W; 500 nM)
T1 sequence (Q00987 1-118 T47W): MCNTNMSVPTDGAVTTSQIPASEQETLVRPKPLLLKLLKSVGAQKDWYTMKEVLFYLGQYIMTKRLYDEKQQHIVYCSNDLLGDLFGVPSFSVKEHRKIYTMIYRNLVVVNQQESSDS
Experimental: MST is a complementary biophysical assay to assess the binding of a small molecule to its receptor. […] Experiments were performed in 50 mM phosphate buffer at pH 7.4 containing 150 mM NaCl, 5 mM DTT, and 5% DMSO. […] Kd values and uncertainties were calculated using the MO Affinity Analysis software.

HL-60(TB) = test: NCI anticancer screening, Leukemia HL-60(TB); type: cell-based; settings: Homo sapiens, read-out: % Growth Inhibition (GI %)
Text: (§1) The compound has been processed according to standard method NCI-60 Human Tumor Cell Lines Screen for organic compound at development therapeutic program (DTP). Requests for access to this national resource can be submitted online at: […]

MOLT-4 = test: NCI anticancer screening, Leukemia MOLT-4; type: cell-based; settings: Homo sapiens; MOLT-4, 10 μM; read-out: % Growth Inhibition (GI %)
Text: as §1

RPMI-8226 = test: NCI anticancer screening, Leukemia RPMI-8226; type: cell-based; settings: Homo sapiens; RPMI-8226, 10 μM; read-out: % Growth Inhibition (GI %)
Text: as §1

A549/ATCC = test: NCI anticancer screening, Non-Small Cell Lung Cancer A549/ATCC; type: cell-based; settings: Homo sapiens, read-out: % Growth Inhibition (GI %)
Text: as §1

HOP-62 = test: NCI anticancer screening, Non-Small Cell Lung Cancer HOP-62; type: cell-based; settings: Homo sapiens; HOP-62, 10 μM; read-out: % Growth Inhibition (GI %)
Text: as §1

NCI-H522 = test: NCI anticancer screening, Non-Small Cell Lung Cancer NCI-H522; type: cell-based; settings: Homo sapiens; NCI-H522, 10 μM; read-out: % Growth Inhibition (GI %)
Text: as §1

COLO 205 = test: NCI anticancer screening, Colon Cancer COLO 205; type: cell-based; settings: Homo sapiens; COLO 205, 10 μM; read-out: % Growth Inhibition (GI %)
Text: as §1

HCC-2998 = test: NCI anticancer screening, Colon Cancer HCC-2998; type: cell-based; settings: Homo sapiens; HCC-2998, 10 μM; read-out: % Growth Inhibition (GI %)
Text: as §1

HT29 = test: NCI anticancer screening, Colon Cancer HT29; type: cell-based; settings: Homo sapiens, HT-29; HT29, 10 μM; read-out: % Growth Inhibition (GI %)
Text: as §1

MALME-3M = test: NCI anticancer screening, Melanoma MALME-3M; type: cell-based; settings: Homo sapiens, read-out: % Growth Inhibition (GI %)
Text: as §1

SK-MEL-28 = test: NCI anticancer screening, Melanoma SK-MEL-28; type: cell-based; settings: Homo sapiens; SK-MEL-28, 10 μM; read-out: % Growth Inhibition (GI %)
Text: as §1

UACC-257 = test: NCI anticancer screening, Melanoma UACC-257; type: cell-based; settings: Homo sapiens; UACC-257, 10 μM; read-out: % Growth Inhibition (GI %)
Text: as §1

UACC-62 = test: NCI anticancer screening, Melanoma UACC-62; type: cell-based; settings: Homo sapiens; UACC-62, 10 μM; read-out: % Growth Inhibition (GI %)
Text: as §1

IGROV1 = test: NCI anticancer screening, Ovarian Cancer IGROV1; type: cell-based; settings: Homo sapiens, IGROV-1; IGROV1, 10 μM; read-out: % Growth Inhibition (GI %)
Text: as §1

OVCAR-3 = test: NCI anticancer screening, Ovarian Cancer OVCAR-3; type: cell-based; settings: Homo sapiens; OVCAR-3, 10 μM; read-out: % Growth Inhibition (GI %)
Text: as §1

SK-OV-3 = test: NCI anticancer screening, Ovarian Cancer SK-OV-3; type: cell-based; settings: Homo sapiens; SK-OV-3, 10 μM; read-out: % Growth Inhibition (GI %)
Text: as §1

786-0 = test: NCI anticancer screening, Renal Cancer 786-0; type: cell-based; settings: Homo sapiens; 786-0, 10 μM; read-out: % Growth Inhibition (GI %)
Text: as §1

A498 = test: NCI anticancer screening, Renal Cancer A498; type: cell-based; settings: Homo sapiens; A498, 10 μM; read-out: % Growth Inhibition (GI %)
Text: as §1

ACHN = test: NCI anticancer screening, Renal Cancer ACHN; type: cell-based; settings: Homo sapiens, read-out: % Growth Inhibition (GI %)
Text: as §1

CAKI-1 = test: NCI anticancer screening, Renal Cancer CAKI-1; type: cell-based; settings: Homo sapiens; CAKI-1, 10 μM; read-out: % Growth Inhibition (GI %)
Text: as §1

RXF 393 = test: NCI anticancer screening, Renal Cancer RXF 393; type: cell-based; settings: Homo sapiens; RXF 393, 10 μM; read-out: % Growth Inhibition (GI %)
Text: as §1

DU-145 = test: NCI anticancer screening, DU-145; type: cell-based; settings: Homo sapiens; DU-145, 10 μM; read-out: % Growth Inhibition (GI %)
Text: as §1

NCI-H226 = test: NCI anticancer screening, Non-Small Cell Lung Cancer NCI-H226; type: cell-based; settings: Homo sapiens; NCI-H226, 10 μM; read-out: % Growth Inhibition (GI %)
Text: as §1

NF-κB = test: Real time PCR NF-κB gene expression in MDA-MB 231 cells; settings: treated MDA-MB 231 cells compared to untreated cells

| SMILES | viability at 72 h, 5 µM [1] [%] | inhibition at 5 µM (PC-3 cells) [%] | Kd [2] [µM] | inhibition at 10 µM (HL-60(TB)) [%] | inhibition at 10 µM (MOLT-4) [%] | inhibition at 10 µM (RPMI-8226) [%] | inhibition at 10 µM (A549/ATCC) [%] | inhibition at 10 µM (HOP-62) [%] | inhibition at 10 µM (NCI-H522) [%] | inhibition at 10 µM (COLO 205) [%] | inhibition at 10 µM (HCC-2998) [%] | inhibition at 10 µM (HT29) [%] | inhibition at 10 µM (MALME-3M) [%] | inhibition at 10 µM (SK-MEL-28) [%] | inhibition at 10 µM (UACC-257) [%] | inhibition at 10 µM (UACC-62) [%] | inhibition at 10 µM (IGROV1) [%] | inhibition at 10 µM (OVCAR-3) [%] | inhibition at 10 µM (SK-OV-3) [%] | inhibition at 10 µM (786-0) [%] | further results |
| --- | --- | --- | --- | --- | --- | --- | --- | --- | --- | --- | --- | --- | --- | --- | --- | --- | --- | --- | --- | --- | --- |
| O=C(c1nc2ccccc2[nH]1)[C@H]1[C@H](c2cccs2)C2CSCN2[C@]12C(=O)Nc1ccccc12 (stereo partly drawn) [Compound 6e, (3S,6′R)-6'-(1H-Benzo [d]imidazole-2-carbonyl)-7'-(thiophen-2-yl)-3′,6′,7′,7a′-tetrahydro-1′H-spiro [indoline-3.5′-pyrrolo [1,2-c]thiazol]-2-one] | 51.7 ± 1.28 | 58.2 ± 0.729 | 113 | 94.1 | 96.1 | 101 | 87.1 | 99.5 | 91.5 | 112 | 108 | 101 | 101 | 105 | 93.4 | 90.8 | 89.7 | 105 | 101 | 100 | inhibition at 10 µM (A498): 79.7%; inhibition at 10 µM (ACHN): 103%; inhibition at 10 µM (CAKI-1): 89.6%; inhibition at 10 µM (RXF 393): 112%; inhibition at 10 µM (DU-145): 109% |
| Cc1ccc([C@@H]2C3CSCN3[C@]3(C(=O)Nc4ccccc43)[C@H]2C(=O)c2nc3ccccc3[nH]2)cc1 (mixture of isomers) [Compound 6d, (3S,6′R)-6'-(1H-Benzo [d]imidazole-2-carbonyl)-7'-(p-tolyl)-3′,6′,7′,7a′-tetrahydro-1′H-spiro [indoline-3.5′-pyrrolo [1,2-c]thiazol]-2-one] | > 81 | > 50 | 17.4 | 96.2 | 78.5 | 80.3 | 75.4 | 105 | 84.3 | 81.9 | 94.9 | 69.2 | 85.3 | 98.8 | 80.6 | 78 | 75 | 89 | 94.2 | 86.1 | inhibition at 10 µM (NCI-H226): 73.9%; inhibition at 10 µM (ACHN): 88.9%; inhibition at 10 µM (CAKI-1): 54.5%; inhibition at 10 µM (RXF 393): 57.1%; inhibition at 10 µM (DU-145): 106%; expression level of NF-κB (NF-κB): downregulating |
| O=C(c1nc2ccccc2[nH]1)[C@H]1[C@H](c2ccccc2)C2CSCN2[C@]12C(=O)Nc1ccccc12 (mixture of isomers) [Compound 6a, (3S,6′R)-6'-(1H-benzo [d]imidazole-2-carbonyl)-7′-phenyl-3′,6′,7′,7a′-tetrahydro-1′H-spiro [indoline-3.5′-pyrrolo [1,2-c]thiazol]-2-one] | > 81 | > 50 | 87.7 | 101 | 100 | 111 | 98.7 | 99.3 | 93.7 | 99.9 | 109 | 98.8 | 101 | 103 | 97.3 | 95.7 | 91.4 | 110 | 99.1 | 102 | inhibition at 10 µM (NCI-H226): 95.3%; inhibition at 10 µM (ACHN): 99.5%; inhibition at 10 µM (CAKI-1): 86%; inhibition at 10 µM (RXF 393): 101%; inhibition at 10 µM (DU-145): 115%; expression level of NF-κB (NF-κB): downregulating |
